≈ marks a conversion by molar mass, not a printed value. Read-outs that look alike come from different tables or passages of the source.
Tests used:
[1] = system: E. coli MG1655; test: Determination of minimum inhibitory concentration (MIC); type: cell-based; details: Escherichia coli, read-out: MIC E. coli
Procedure: (§1) Determination of minimum inhibitory concentration (MIC). MICs were also determined on Mueller Hinton agar plates (0.2% beef extract, 1.75% acid digest of casein, 0.15% soluble starch, 1.5% agar, pH 7.3).
(§2) Determination of MIC Minimal inhibitory concentrations (MICs) were determined using a standard 2-fold serial dilution format on L agar plates. Ten microliters of stationary culture diluted in 0.85% NaCl to 10^6 cells/ml were spotted on per plate. […] MICs were also determined on Mueller Hinton agar plates (0.2% beef extract, 1.75% acid digest of casein, 0.15% soluble starch, 1.5% agar, pH 7.3).

[2] = system: P. putida NBRC14164; test: as above; type: cell-based, Pseudomonas putida; details: Pseudomonas putida, read-out: MIC P. putida
Procedure: as §1, §2

[3] = system: S. typhimurium NBRC13245; test: as above; type: cell-based, Salmonella typhimurium; details: Salmonella enterica, read-out: MIC S. typhimurium
Procedure: as §1, §2

[4] = system: B. subtilis 168; test: as above; type: cell-based, Bacillus subtilis; details: read-out: MIC B. subtilis
Procedure: as §1, §2

[5] = system: S. aureus subsp. aureus NBRC15035; test: as above; type: cell-based, Staphylococcus aureus; details: Staphylococcus aureus, read-out: MIC S. aureus
Procedure: as §1, §2

[6] = system: E. coli MG1655; test: Microscopic observation of cell shape; type: cell-based
Procedure: Microscopic observation. E. coli K-12 strain MG1655 (F^− λ^−) was grown in Lennox broth containing 1% Polypepton, 0.5% yeast extract, 0.5% NaCl, and 0.1% glucose (pH 7.2). Cells spread on a slide glass were treated with methanol for 5 min and covered with poly-L-lysine. The fixed cells were observed by the differential interference contrast system through an Axioskop 2 microscope (Carl Zeiss Co., Ltd., Oberkochen, Germany). To observe the anucleate cells, cells were stained with a 4′,6-diamidino-2-phenylindole (DAPI) solution (5 μg/ml in saline) and then observed by the fluorescence phase-contrast combined method.
The effect of each compound on E. coli cell morphology was next examined.

[7] = system: E. coli K-12 strain SH3210; test: Anucleate cell blue assay; type: cell-based
Procedure: Anucleate cell blue assay. The anucleate cell blue assay was carried out as reported previously. Briefly, E. coli K-12 strain SH3210 (ΔtrpE5 his λ pXX747) was grown in a P medium containing 1% Polypepton and 0.5% NaCl (pH 7). Paper disks (φ 8 mm) each soaked with 20 μl of a sample solution were placed on P medium agar plates (1.5% agar) containing 10^4 cells/ml of SH3210 and 40 μg/ml of 5-bromo-4-chloro-3-indolyl β-D-galactoside. The plates were incubated at 42° C. for 24 h, and the development of a blue color and the growth inhibitory zone around the paper disks were evaluated.
Since 1 had originally been found through screening by an anucleate cell blue assay, the effect of each compound was first examined by this assay.

[8] = MG1655, Example 2, methods as in Example 1
[9] = NBRC14164, Example 2, methods as in Example 1
[10] = Example 2, methods as in Example 1
[11] = Bacillus subtilis, 168, Example 2, methods as in Example 1
[12] = NBRC15035, Example 2, methods as in Example 1

Structure (SMILES)	MIC [1, 8]	MIC [2, 9]	MIC [3, 10]	MIC [4, 11]	MIC [5, 12]	Shape [6, 10]	Growth inhibitory zone and blue zone in the anucleate cell blue assay (in words) [7]	MIC ([1]; MG1655, Table 1, E. coli MG1655)	MIC ([2]; NBRC14164, Table 1, NBRC14164)	MIC ([3]; Table 1, NBRC13245)	MIC ([4]; Bacillus subtilis, 168, Table 1, B. subtilis 168)	MIC ([5]; NBRC15035, Table 1, NBRC15035)	Shape ([6]; E. coli MG1655 treated at 300 μg/ml (**), 30° C., 16 h)
N=C(N)SCc1ccccc1F [Compound 2-F]	25 µg/mL (≈ 136 µM)	> 100 µg/mL	25 µg/mL (≈ 136 µM)	> 100 µg/mL	> 100 µg/mL	Sphere	–	–	–	–	–	–	–
COc1ccc(CSC(=N)N)cc1 [Compound 4-MeO]	> 100 µg/mL	> 100 µg/mL	> 100 µg/mL	> 100 µg/mL	> 100 µg/mL	Sphere	–	–	–	–	–	–	–
S=C=NCc1ccccc1 [Compound 8, benzylisothiocyanate, reference compound]	50 µg/mL (≈ 335 µM)	> 100 µg/mL	100 µg/mL (≈ 670 µM)	25 µg/mL (≈ 168 µM)	12.5 µg/mL (≈ 83.8 µM)	Rod	a growth inhibitory zone, but no blue zone developed	50 µg/mL (≈ 335 µM)	> 100 µg/mL	100 µg/mL (≈ 670 µM)	25 µg/mL (≈ 168 µM)	12.5 µg/mL (≈ 83.8 µM)	Rod**
N=C(N)SCc1ccc(Br)cc1 [Compound 4-Br, S-(4-Bromo-benzyl)-isothiourea]	3.13 µg/mL (≈ 12.8 µM)	> 100 µg/mL	6.25 µg/mL (≈ 25.5 µM)	> 100 µg/mL	> 100 µg/mL	Sphere	–	–	–	–	–	–	–
N=C(N)SCc1cccc(C(F)(F)F)c1 [Compound 3-CF3]	> 100 µg/mL	> 100 µg/mL	> 100 µg/mL	> 100 µg/mL	> 100 µg/mL	Sphere	–	–	–	–	–	–	–
N=C(N)SCc1cc(Cl)ccc1Cl [2,5-Cl]	12.5 µg/mL (≈ 53.2 µM)	> 100 µg/mL	25 µg/mL (≈ 106 µM)	> 100 µg/mL	> 100 µg/mL	Sphere	–	–	–	–	–	–	–
CC1CN(c2c(F)c(N)c3c(=O)c(C(=O)O)cn(C4CC4)c3c2F)CC(C)N1 (stereo not shown) [SPFX, reference compound]	0.0244 µg/mL (≈ 0.0622 µM)	0.391 µg/mL (≈ 0.996 µM)	0.0488 µg/mL (≈ 0.124 µM)	0.0244 µg/mL (≈ 0.0622 µM)	0.0488 µg/mL (≈ 0.124 µM)	–	–	–	–	–	–	–	–
N=C(N)SCc1ccccc1C(F)(F)F [Compound 2-CF3]	> 100 µg/mL	> 100 µg/mL	> 100 µg/mL	> 100 µg/mL	> 100 µg/mL	Sphere	–	–	–	–	–	–	–
N=C(N)SCc1cccc(Cl)c1 [Compound 3-Cl]	50 µg/mL (≈ 249 µM)	> 100 µg/mL	> 100 µg/mL	50 µg/mL (≈ 249 µM)	> 100 µg/mL	Sphere	–	–	–	–	–	–	–
N=C(N)SCc1cccc(F)c1 [Compound 3-F]	50 µg/mL (≈ 271 µM)	> 100 µg/mL	> 100 µg/mL	50 µg/mL (≈ 271 µM)	> 100 µg/mL	Sphere	–	–	–	–	–	–	–
N=C(N)SCc1ccc([N+](=O)[O-])cc1 [Compound 4-NO2, S-(4-Nitro-benzyl)-isothiourea]	25 µg/mL (≈ 118 µM)	> 100 µg/mL	50 µg/mL (≈ 237 µM)	25 µg/mL (≈ 118 µM)	> 100 µg/mL	Sphere	–	–	–	–	–	–	–
CN(C)[C@@H]1C(O)=C(C(N)=O)C(=O)[C@@]2(O)C(O)=C3C(=O)c4c(O)cccc4[C@@](C)(O)C3CC12 (stereo partly shown) [TC, reference compound]	–	–	–	–	–	Rod	–	–	–	–	–	–	–
N=C(N)SCc1cc(Cl)cc(Cl)c1 [3,5-Cl]	> 100 µg/mL	> 100 µg/mL	> 100 µg/mL	> 100 µg/mL	> 100 µg/mL	Sphere	–	–	–	–	–	–	–
I.Nc1nc(-c2ccccc2)cs1 [TZ, reference compound]	> 100 µg/mL	> 100 µg/mL	> 100 µg/mL	> 100 µg/mL	> 100 µg/mL	Rod	–	–	–	–	–	–	–
N=C(N)SCc1c(Cl)cccc1Cl [2,6-Cl]	12.5 µg/mL (≈ 53.2 µM)	> 100 µg/mL	25 µg/mL (≈ 106 µM)	> 100 µg/mL	> 100 µg/mL	Sphere	–	–	–	–	–	–	–
N=C(N)SCc1cc(F)c(Cl)cc1Cl [2,4-Cl 5-F, S-(2,4-Dichloro, and 5-fluoro-benzyl)-isothiourea]	0.78 µg/mL (≈ 3.08 µM)	> 100 µg/mL	12.5 µg/mL (≈ 49.4 µM)	12.5 µg/mL (≈ 49.4 µM)	> 100 µg/mL	Sphere	–	–	–	–	–	–	–

The next lines start with results.

MIC [1, 8]	MIC [2, 9]	MIC [3, 10]	MIC [4, 11]	MIC [5, 12]	Structure (SMILES)	Shape [6, 10]	Growth inhibitory zone and blue zone in the anucleate cell blue assay (in words) [7]	MIC ([1]; MG1655, Table 1, E. coli MG1655)	MIC ([2]; NBRC14164, Table 1, NBRC14164)	MIC ([3]; Table 1, NBRC13245)	MIC ([4]; Bacillus subtilis, 168, Table 1, B. subtilis 168)	MIC ([5]; NBRC15035, Table 1, NBRC15035)	Shape ([6]; E. coli MG1655 treated at 300 μg/ml (**), 30° C., 16 h)
50 µg/mL (≈ 204 µM)	> 100 µg/mL	50 µg/mL (≈ 204 µM)	> 100 µg/mL	> 100 µg/mL	N=C(N)SCc1ccccc1Br [Compound 2-Br]	Sphere	–	–	–	–	–	–	–
12.5 µg/mL (≈ 61.8 µM)	> 100 µg/mL	25 µg/mL (≈ 124 µM)	25 µg/mL (≈ 124 µM)	100 µg/mL (≈ 494 µM)	N=C(N)SCc1ccc(F)c(F)c1 [3,4-F]	Sphere	–	–	–	–	–	–	–
> 100 µg/mL	> 100 µg/mL	> 100 µg/mL	> 100 µg/mL	> 100 µg/mL	N=C(N)SCc1c(F)c(F)c(F)c(F)c1F [pentaF]	Sphere	–	–	–	–	–	–	–
50 µg/mL (≈ 247 µM)	> 100 µg/mL	50 µg/mL (≈ 247 µM)	> 100 µg/mL	> 100 µg/mL	N=C(N)SCc1c(F)cccc1F [2,6-F]	Sphere	–	–	–	–	–	–	–
100 µg/mL (≈ 496 µM)	> 100 µg/mL	> 100 µg/mL	> 100 µg/mL	> 100 µg/mL	N=C(N)SCc1ccc(Cl)nc1 [4-Cl Pyr]	Sphere	–	–	–	–	–	–	–
12.5 µg/mL (≈ 62.3 µM)	> 100 µg/mL	25 µg/mL (≈ 125 µM)	> 100 µg/mL	> 100 µg/mL	N=C(N)SCc1ccccc1Cl [Compound 2-Cl]	Sphere	–	–	–	–	–	–	–
50 µg/mL (≈ 156 µM)	> 100 µg/mL	12.5 µg/mL (≈ 39 µM)	0.0122 µg/mL (≈ 0.0381 µM)	0.0977 µg/mL (≈ 0.305 µM)	CC1(C)S[C@@H]2[C@H](NC(=O)c3ccccc3)C(=O)N2[C@H]1C(=O)O [PCG, reference compound]	Fil	–	–	–	–	–	–	–
25 µg/mL (≈ 139 µM)	> 100 µg/mL	50 µg/mL (≈ 277 µM)	> 100 µg/mL	> 100 µg/mL	Cc1ccc(CSC(=N)N)cc1 [Compound 4-CH3, S-(4-methyl-benzyl)-isothiourea]	Sphere	–	–	–	–	–	–	–
6.25 µg/mL (≈ 19.3 µM)	50 µg/mL (≈ 155 µM)	6.25 µg/mL (≈ 19.3 µM)	3.13 µg/mL (≈ 9.69 µM)	12.5 µg/mL (≈ 38.7 µM)	O=C(N[C@H](CO)[C@H](O)c1ccc([N+](=O)[O-])cc1)C(Cl)Cl [CP, reference compound]	Rod	–	–	–	–	–	–	–
3.13 µg/mL (≈ 8.96 µM)	> 100 µg/mL	1.56 µg/mL (≈ 4.46 µM)	0.0488 µg/mL (≈ 0.14 µM)	0.195 µg/mL (≈ 0.558 µM)	CC1(C)S[C@@H]2[C@H](NC(=O)C(N)c3ccccc3)C(=O)N2[C@H]1C(=O)O (stereo partly shown) [ABPC, reference compound]	Fil	–	–	–	–	–	–	–
1.56 µg/mL (≈ 6.63 µM)	> 100 µg/mL	1.56 µg/mL (≈ 6.63 µM)	> 100 µg/mL	> 100 µg/mL	N=C(N)SCc1ccc(Cl)cc1Cl [2,4-Cl, S-(2,4-Dichloro-benzyl)-isothiourea]	Sphere	–	–	–	–	–	–	–
12.5 µg/mL (≈ 42.8 µM)	> 100 µg/mL	25 µg/mL (≈ 85.6 µM)	> 100 µg/mL	> 100 µg/mL	N=C(N)SCc1ccc(I)cc1 [Compound 4-I, S-(4-Iodo-benzyl)-isothiourea]	Sphere	–	–	–	–	–	–	–
12.5 µg/mL (≈ 67.8 µM)	> 100 µg/mL	12.5 µg/mL (≈ 67.8 µM)	50 µg/mL (≈ 271 µM)	100 µg/mL (≈ 543 µM)	N=C(N)SCc1ccc(F)cc1 [Compound 4-F, S-(4-Fluoro-benzyl)-isothiourea]	Sphere	–	–	–	–	–	–	–
50 µg/mL (≈ 213 µM)	> 100 µg/mL	> 100 µg/mL	> 100 µg/mL	> 100 µg/mL	N=C(N)SCc1ccc(C(F)(F)F)cc1 [Compound 4-CF3, S-(4-Trifluoromethyl-benzyl)-isothiourea]	Sphere	–	–	–	–	–	–	–
100 µg/mL (≈ 371 µM)	> 100 µg/mL	> 100 µg/mL	100 µg/mL (≈ 371 µM)	> 100 µg/mL	N=C(N)SCc1c(Cl)cc(Cl)cc1Cl [2,4,6-Cl]	Sphere	–	–	–	–	–	–	–
25 µg/mL (≈ 106 µM)	> 100 µg/mL	25 µg/mL (≈ 106 µM)	100 µg/mL (≈ 425 µM)	25 µg/mL (≈ 106 µM)	N=C(N)SCc1cccc(Cl)c1Cl [2,3-Cl]	Sphere	–	–	–	–	–	–	–

— patent US7855228B2, “Antibiotics targeting MreB” (The Board of Trustees of the Leland Stamford Junior …, priority 2005, dated 2010)
